Measurements as given in PMC11017246, “Discovery of GLPG2737, a Potent Type 2 Corrector of CFTR for the Treatment of Cystic Fibrosis in Combination with a Potentiator and a Type 1 Co-corrector” (Journal of Medicinal Chemistry, 2024).
Values joined by “and” are separate entries in the source; they are usually repeats but may differ in a detail not shown here. Identical values can stand only once. Like-named read-outs stand apart in the source and are kept apart here. Values belong to the molecule of their own block, whether it stands above or below them.

Experiments:
CYP3A4 = assay: CYP reversible inhibition in HLM, CYP3A4; format: in vitro ADME; conditions: human, human liver microsomes
Protocol: (§1) Test compounds were diluted in methanol and then added to mixture containing 50 mM potassium phosphate buffer, pH 7.4, human liver microsomes (BD Gentest) and probe substrate. After prewarming for 5 min at 37 °C, the reaction was started by adding cofactor mix (7.65 mg/mL glucose-6-phosphate, 1.7 mg/mL NADP, 6 U/mL of glucose-6-phosphate dehydrogenase), resulting in seven final concentrations of test compounds in the range 0.14–100 μM (2% methanol). Isoform specific conditions regarding probe substrate and microsomal protein concentrations are available in Table 2. Final concentrations of cofactor mix components were as follows: 1.56 mg/mL glucose-6-phosphate, 0.34 mg/mL NADP, and 1.2 U/mL glucose-6-phosphate dehydrogenase. After incubation at 37 °C, the reaction was terminated with acetonitrile:methanol (2:1) solution with internal standard. Samples were centrifuged, and the supernatant fractions were analyzed by LC-MS/MS. The instrument responses (test compounds and internal standard peak areas) were referenced to those for solvent controls (assumed as 100%) in order to determine the percentage reduction in probe metabolism. Percent of control activity vs concentration plots were generated and fitted using GraphPad Prism software to generate IC50.

[1] = Plasma protein binding, human; format: in vitro ADME; conditions: for fraction unbound at 4 h, 5 μM: human, pH 7.4, human plasma, read-out: PPB % human (converted)
Protocol: Plasma protein binding was determined by equilibrium dialysis using the Pierce Red Device plate with inserts (ThermoScientific). Test compound at 5 μM (0.5% DMSO) spiked in freshly thawed human, rat, mouse, or dog plasma (Bioreclamation INC, Westbury, NY, USA) was dialyzed against phosphate-buffered saline (PBS, pH 7.4) at 37 °C under shaking for 4 h. Aliquots were taken from each side of the well, and matrix matched. Proteins were precipitated with an excess of acetonitrile, samples were mixed and centrifuged, and the supernatant was analyzed by liquid chromatography–mass spectrometry/mass spectrometry (LC–MS/MS). Addition of compound peak areas in the buffer chamber and the plasma chamber was considered to be 100% compound.

CYP2C19 = target: T1, CYP2C19 (Homo sapiens, UniProt P33261); assay: CYP reversible inhibition in HLM, CYP2C19; format: in vitro ADME; conditions: probe S-mephenytoin
T1 construct: tissue BD Gentest; host or cells: human liver microsomes
Protocol: as §1

[2] = Hepatocyte stability, human; format: in vitro ADME; conditions: for CLint scaled at 1 μM: read-out: Hep CLint,u human
Protocol: (§2) The hepatocyte stability assay was performed by incubation of test compound at 1 μM, 0.03% DMSO in modified Krebs–Henseleit buffer with suspension of pooled cryopreserved hepatocytes (BioIVT, Hicksville, NY, USA) from mouse, rat, dog, or human (BioIVT, Hicksville, NY, USA) at 0.5 million viable hepatocytes/mL. Before adding the hepatocytes (time zero) and after 10, 20, 45, 90, 120, and 180 min of incubation (n = 2) at 37 °C while gently shaking, the reaction was stopped and proteins were precipitated with an excess of acetonitrile containing an internal standard. The samples were mixed, centrifuged, and filtered, and the supernatant was analyzed by liquid chromatography–mass spectrometry/mass spectrometry (LC–MS/MS). The instrument responses (peak areas/IS peak areas) were referenced to the zero-time point samples (considered as 100%) in order to determine the percentage of compound remaining.

[3] = Hepatocyte stability, dog; format: in vitro ADME; conditions: for CLint scaled at 1 μM: read-out: Hep CLint,u dog (converted)
Protocol: as §2

[4] = Measured pKa (potentiometric and UV methods); format: physicochemical; conditions: measured at Charles River
ΔF508 CFTR = target: T2, ΔF508 CFTR (Homo sapiens, UniProt P13569, DEL508-508); assay: TECC (transepithelial clamp circuit) in primary CF-derived HBE cells; format: cell-based; conditions: for Emax / EC50: primary ΔF508 homozygous HBE cells, 24 h incubation, with GLPG2222; for Emax: read-out: TECC HBE with GLPG2222 % max activation; for EC50: read-out: TECC HBE with GLPG2222 EC50
T2 construct: host or cells: CFBE41o- TetON cells, expression induced with doxycycline
Protocol: Bronchial epithelial cells isolated from the lungs of patients with CF homozygous for the ΔF508 CFTR mutation were obtained from McGill University (Montreal, QC, Canada) or the University of North Carolina (Chapel Hill, NC, United States). Cells were isolated from lungs obtained from donors undergoing planned transplantation. These primary cells were cultured directly on type IV collagen-coated polycarbonate Transwell supports with a diameter of 6.5 mm and pore size of 0.4 μm (Costar, #3397) for 18–25 days in an air–liquid interface, essentially as previously described for TECC.[23]
Twenty-four hours prior to the electrophysiological recording, corrector and/or potentiator compounds were added on both the apical and basolateral sides. TECC recordings were performed by using the TECC instrument developed and sold by EP Design (Bertem, Belgium). During the recording, the epithelial cells were bathed in a NaCl-Ringer solution (120 mM NaCl, 20 mM HEPES, 1.2 mM CaCl2, 1.2 mM MgCl2, 0.8 mM KH2PO4, 0.8 mM K2HPO4, 5 mM glucose, pH 7.4) on both the basolateral (640 μL) and the apical (160 μL) sides and kept at 37 °C. Corrector and potentiator compounds were readded at the same concentration used during the 24 h pretreatment. Apical amiloride was used to inhibit the endogenous ENaC currents (100 μM), while forskolin (10 μM) was applied on both the apical and basolateral sides to stimulate CFTR. Measurements were done during a 20 min time frame with recordings every 2 min. The transepithelial potential and transepithelial resistance were measured in an open circuit and transformed to Ieq using Ohm’s law. The maximal increase in Ieq (ΔIeq, the difference in current before and after forskolin or potentiator treatment) was used as a measure for the increased CFTR activity. EC50 values were generated by measuring the impact of different concentrations of compounds on ΔIeq in primary cells. For this purpose, each transwell was treated with a different compound concentration. CFTRInh-172 was added apically at 10 μM to assess the specificity of the response. Dose response data was fitted using a 3-parameter hill function of the form Response = Bottom + (Top – Bottom)/(1 + (EC50/concentration)) to determine EC50 values. Percentage efficacy was calculated using the following formula: (max response – neg control)/(C1 response – neg control).

(h)Sigma = assay: Radioligand binding, (h)Sigma (Eurofins panel); design: species or system human; conditions: read-out: IC50, inhibition of radioligand binding to (h)Sigma
hERG = hERG (Homo sapiens, UniProt Q12809); assay: hERG manual patch clamp test; format: cell-based
Chain of hERG (Q12809 whole entry): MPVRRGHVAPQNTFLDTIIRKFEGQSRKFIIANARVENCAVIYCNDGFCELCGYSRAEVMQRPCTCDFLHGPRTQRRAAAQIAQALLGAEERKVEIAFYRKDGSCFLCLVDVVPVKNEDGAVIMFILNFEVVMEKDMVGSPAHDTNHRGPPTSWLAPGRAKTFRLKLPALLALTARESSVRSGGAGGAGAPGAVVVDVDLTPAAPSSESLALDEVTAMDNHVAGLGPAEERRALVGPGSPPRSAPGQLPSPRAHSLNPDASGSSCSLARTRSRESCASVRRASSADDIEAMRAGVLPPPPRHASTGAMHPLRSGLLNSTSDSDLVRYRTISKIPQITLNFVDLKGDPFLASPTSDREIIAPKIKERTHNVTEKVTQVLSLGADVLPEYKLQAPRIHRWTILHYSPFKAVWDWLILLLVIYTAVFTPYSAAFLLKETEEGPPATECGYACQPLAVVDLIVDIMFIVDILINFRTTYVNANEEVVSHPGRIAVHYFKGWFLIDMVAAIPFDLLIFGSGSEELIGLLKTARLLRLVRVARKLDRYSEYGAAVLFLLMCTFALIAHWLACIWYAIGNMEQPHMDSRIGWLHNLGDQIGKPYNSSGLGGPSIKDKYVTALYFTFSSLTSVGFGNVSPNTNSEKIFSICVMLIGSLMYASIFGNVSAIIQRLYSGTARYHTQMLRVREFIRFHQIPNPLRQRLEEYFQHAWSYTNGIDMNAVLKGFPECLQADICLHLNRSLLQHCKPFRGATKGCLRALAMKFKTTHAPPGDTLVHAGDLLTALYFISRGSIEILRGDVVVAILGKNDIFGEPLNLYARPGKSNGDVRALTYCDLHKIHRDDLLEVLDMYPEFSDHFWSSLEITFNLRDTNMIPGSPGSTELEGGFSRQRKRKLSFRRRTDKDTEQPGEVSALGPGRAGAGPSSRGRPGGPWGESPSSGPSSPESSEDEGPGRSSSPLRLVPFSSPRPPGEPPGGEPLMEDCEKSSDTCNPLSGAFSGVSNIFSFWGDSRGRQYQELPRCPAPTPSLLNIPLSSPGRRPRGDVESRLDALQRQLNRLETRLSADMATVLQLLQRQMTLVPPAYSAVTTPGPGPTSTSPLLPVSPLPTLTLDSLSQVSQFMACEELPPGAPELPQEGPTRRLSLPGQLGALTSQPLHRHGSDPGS

T2 sequence (P13569 with tags, fused parts or gaps DEL508-508): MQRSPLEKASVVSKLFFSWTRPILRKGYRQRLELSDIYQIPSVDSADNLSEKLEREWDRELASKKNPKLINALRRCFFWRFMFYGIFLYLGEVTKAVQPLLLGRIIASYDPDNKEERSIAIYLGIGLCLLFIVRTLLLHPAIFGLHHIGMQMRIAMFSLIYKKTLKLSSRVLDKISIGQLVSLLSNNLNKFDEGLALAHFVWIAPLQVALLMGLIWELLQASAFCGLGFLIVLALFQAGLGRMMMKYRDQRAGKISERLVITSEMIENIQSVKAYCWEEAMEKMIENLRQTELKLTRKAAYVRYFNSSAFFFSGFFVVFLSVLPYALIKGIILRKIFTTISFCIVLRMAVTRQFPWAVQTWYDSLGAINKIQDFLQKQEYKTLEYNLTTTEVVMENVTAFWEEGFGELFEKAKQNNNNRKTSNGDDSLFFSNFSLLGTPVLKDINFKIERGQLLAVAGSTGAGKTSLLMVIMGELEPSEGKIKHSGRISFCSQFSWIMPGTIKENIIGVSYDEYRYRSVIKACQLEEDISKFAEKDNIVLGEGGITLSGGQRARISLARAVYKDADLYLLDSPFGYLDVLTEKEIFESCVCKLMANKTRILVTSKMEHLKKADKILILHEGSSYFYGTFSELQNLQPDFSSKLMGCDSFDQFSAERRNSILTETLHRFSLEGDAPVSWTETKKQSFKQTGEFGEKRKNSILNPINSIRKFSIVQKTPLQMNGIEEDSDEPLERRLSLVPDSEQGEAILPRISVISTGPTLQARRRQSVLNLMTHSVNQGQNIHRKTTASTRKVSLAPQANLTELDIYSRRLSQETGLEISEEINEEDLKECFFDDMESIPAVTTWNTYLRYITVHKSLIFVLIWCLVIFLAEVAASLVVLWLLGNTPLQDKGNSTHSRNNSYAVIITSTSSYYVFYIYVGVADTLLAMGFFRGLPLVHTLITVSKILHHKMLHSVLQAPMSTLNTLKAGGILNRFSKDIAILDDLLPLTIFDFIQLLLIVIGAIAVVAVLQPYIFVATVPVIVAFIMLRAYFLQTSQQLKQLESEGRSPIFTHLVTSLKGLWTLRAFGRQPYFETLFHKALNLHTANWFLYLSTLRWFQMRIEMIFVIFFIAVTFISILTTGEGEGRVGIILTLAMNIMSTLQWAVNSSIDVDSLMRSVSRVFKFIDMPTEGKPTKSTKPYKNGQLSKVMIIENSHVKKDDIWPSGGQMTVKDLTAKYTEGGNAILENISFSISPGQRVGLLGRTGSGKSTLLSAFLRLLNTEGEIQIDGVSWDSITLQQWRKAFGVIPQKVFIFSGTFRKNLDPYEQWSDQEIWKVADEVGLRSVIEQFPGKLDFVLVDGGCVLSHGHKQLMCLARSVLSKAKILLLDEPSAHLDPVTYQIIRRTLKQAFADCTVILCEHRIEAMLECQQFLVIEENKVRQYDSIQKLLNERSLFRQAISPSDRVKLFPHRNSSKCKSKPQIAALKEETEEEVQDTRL
T1 sequence (P33261 whole entry): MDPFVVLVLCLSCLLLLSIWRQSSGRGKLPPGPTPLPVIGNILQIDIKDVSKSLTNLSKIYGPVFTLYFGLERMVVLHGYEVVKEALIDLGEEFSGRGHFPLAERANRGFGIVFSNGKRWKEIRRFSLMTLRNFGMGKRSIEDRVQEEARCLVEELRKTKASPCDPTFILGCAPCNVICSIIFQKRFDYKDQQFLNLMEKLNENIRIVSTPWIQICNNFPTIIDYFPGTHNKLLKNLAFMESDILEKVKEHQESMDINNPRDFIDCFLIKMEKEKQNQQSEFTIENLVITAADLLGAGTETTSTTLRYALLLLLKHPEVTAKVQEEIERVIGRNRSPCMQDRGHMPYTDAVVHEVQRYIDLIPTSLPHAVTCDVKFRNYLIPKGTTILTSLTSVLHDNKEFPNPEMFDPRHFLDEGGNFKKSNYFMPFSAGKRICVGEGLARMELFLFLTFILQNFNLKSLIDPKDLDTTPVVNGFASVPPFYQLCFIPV

IC50 (CYP3A4; pH 7.4, probe midazolam): > 100000 nM | IC50 (CYP3A4; pH 7.4, probe testosterone): > 100000 nM | fraction unbound at 4 h, 5 μM ([1]; human plasma): 0.02 | IC50 (CYP2C19): > 33000 nM | Hepatocyte stability: %LBF human ([2]; human hepatocytes): 22 %LBF | Hepatocyte stability: predicted hepCl human ([2]; human hepatocytes, 1 µM): < 4.67 mL/min/kg | CLint scaled at 1 μM ([2]; human hepatocytes): < 12.8 mL/min/kg | Hepatocyte stability: %LBF dog ([3]; dog hepatocytes): 14 %LBF | Hepatocyte stability: predicted hepCl dog ([3]; dog hepatocytes, 1 µM): < 5.83 mL/min/kg | CLint scaled at 1 μM ([3]; dog, pooled cryopreserved dog hepatocytes in suspension): < 24.8 mL/min/kg | pKa ([4]; UV method, read-out: measured acylsulfonamyl pKa): 4.74 | pKa ([4]; UV method, read-out: measured piperidine pKa): 8.51 | pKa ([4]; potentiometric method, read-out: measured acylsulfonamyl pKa): 4.96 | pKa ([4]; potentiometric method, read-out: measured piperidine pKa): 8.42 | increase in F508del CFTR activity (ΔF508 CFTR; addition to the combination of potentiator GLPG1837 and C1 corrector 4): 8 fold | Emax (ΔF508 CFTR): 467% | EC50 (ΔF508 CFTR): 47 nM | IC50 ((h)Sigma): 360 nM
Compound: COC1CCN(C2CCN(c3cc(C(=O)NS(=O)(=O)N(C)C)nc4c3c(C3CCC3)nn4-c3ccc(F)cc3)CC2)CC1 [Compound 52, 3-Cyclobutyl-N-(N,N-dimethylsulfamoyl)-1-(4-fluorophenyl)-4-(4-methoxy-[1,4′-bipiperidin]-1′-yl)-1H-pyrazolo[3,4-b]pyridine-6-carboxamide]
hERG inhibition (hERG): No significant inhibition

PPB % human ([1]; human plasma): 99% and 98.7% | fraction unbound at 4 h, 5 μM ([1]; plasma): 0.02 | CLint scaled at 1 μM ([2]; pooled cryopreserved hepatocytes in suspension): < 11 mL/min/kg | CLint scaled at 1 μM ([3]; pooled cryopreserved hepatocytes in suspension, dog hepatocytes): 31.7 mL/min/kg | Emax (ΔF508 CFTR): 371% | EC50 (ΔF508 CFTR): 67 nM
Compound: CN(C)S(=O)(=O)NC(=O)c1cc(N2CCC(N3CCOCC3)CC2)c2c(C3CCC3)nn(-c3ccc(F)cc3)c2n1 [Compound 51]
